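Values below derive from 48-hour exposures of cells grown in 96-well plates, with endpoints linearly interpolated between the two concentrations bracketing the appropriate inhibition level. TGI denotes the concentration required for complete inhibition of growth.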
Experiments:
Assay in all cases: NCI tumour cell line growth inhibition, 48 h
[1] = system: 786-0 renal
[2] = system: A498 renal
[3] = system: A549 NSCLC
[4] = system: ACHN renal
[5] = system: CAKI-1 renal
[6] = system: CCRF-CEM leukemia
[7] = system: COLO 205 colon
[8] = system: DLD-1 colon
[9] = system: DMS 114 small cell lung
[10] = system: DMS 273 small cell lung
[11] = system: EKVX NSCLC
[12] = system: HCC-2998 colon
[13] = system: HCT-116 colon
[14] = system: HCT-15 colon
[15] = system: HL-60(TB) leukemia
[16] = system: HOP-18 NSCLC
[17] = system: HOP-62 NSCLC
[18] = system: HOP-92 NSCLC
[19] = system: HT29 colon
[20] = system: IGROV1 ovarian
[21] = system: K-562 leukemia
[22] = system: KM12 colon
[23] = system: KM20L2 colon
[24] = system: LOX IMVI melanoma
[25] = system: LXFL 529 NSCLC
[26] = system: M14 melanoma
[27] = system: M19-MEL melanoma
[28] = system: MALME-3M melanoma
[29] = system: MOLT-4 leukemia
[30] = system: NCI-H226 lung
[31] = system: NCI-H23 lung
[32] = system: NCI-H460 lung
[33] = system: NCI-H522 lung
[34] = system: OVCAR-3 ovarian
[35] = system: OVCAR-4 ovarian
[36] = system: OVCAR-5 ovarian
[37] = system: OVCAR-8 ovarian
[38] = system: RXF 393 renal
[39] = system: RXF-631 renal
[40] = system: SF-268 CNS
[41] = system: SF-295 CNS
[42] = system: SF-539 CNS
[43] = system: SK-MEL-2 melanoma
[44] = system: SK-MEL-28 melanoma
[45] = system: SK-MEL-5 melanoma
[46] = system: SK-OV-3 ovarian
[47] = system: SN12C renal
[48] = system: SNB-19 CNS
[49] = system: SNB-75 CNS
[50] = system: SNB-78 CNS
[51] = system: SR leukemia
[52] = system: SW-620 colon
[53] = system: TK-10 renal
[54] = system: U251 CNS
[55] = system: UACC-257 melanoma
[56] = system: UACC-62 melanoma
[57] = system: UO-31 renal
[58] = system: XF 498 CNS
[59] = system: RPMI-8226 leukemia

CN(C)NC1=C([N+](=O)[O-])C=NN(c2ccccc2)C1
TGI [1]: 3.24 µM
TGI [2]: 36 µM
TGI [3]: 3.87 µM
TGI [4]: 3.18 µM
TGI [5]: 3.64 µM
TGI [6]: 4.52 µM
TGI [7]: 3.27 µM
TGI [8]: 3.6 µM
TGI [9]: 3.33 µM
TGI [10]: 3.18 µM
TGI [11]: 3.52 µM
TGI [12]: 3.18 µM
TGI [13]: 3.26 µM
TGI [14]: 3.09 µM
TGI [15]: 4.62 µM
TGI [16]: 3.25 µM
TGI [17]: 4.33 µM
TGI [18]: 3.76 µM
TGI [19]: 3.66 µM
TGI [20]: 3.9 µM
TGI [21]: 6.15 µM
TGI [22]: 11.9 µM
TGI [23]: 3.54 µM
TGI [24]: 3.11 µM
TGI [25]: 3.03 µM
TGI [26]: 3.23 µM
TGI [27]: 3.23 µM
TGI [28]: 3.63 µM
TGI [29]: 5.05 µM
TGI [30]: 15.1 µM
TGI [31]: 3.42 µM
TGI [32]: 4.1 µM
TGI [33]: 0.343 µM
TGI [34]: 3.29 µM
TGI [35]: 3.22 µM
TGI [36]: 3.04 µM
TGI [37]: 4.16 µM
TGI [38]: 3.46 µM
TGI [39]: 3.33 µM
TGI [40]: 3.51 µM
TGI [41]: 3.2 µM
TGI [42]: 3.31 µM
TGI [43]: 3.21 µM
TGI [44]: 3.21 µM
TGI [45]: 6.41 µM
TGI [46]: 3.46 µM
TGI [47]: 3.22 µM
TGI [48]: 4.98 µM
TGI [49]: 3.34 µM
TGI [50]: 4.3 µM
TGI [51]: 2.51 µM
TGI [52]: 3.67 µM
TGI [53]: 11.8 µM
TGI [54]: 3.17 µM
TGI [55]: 3.57 µM
TGI [56]: 3.14 µM
TGI [57]: 3.19 µM
TGI [58]: 3.93 µM

Cc1ccccc1NC(=O)Cc1nc2ccccc2s1
TGI [1]: 31.6 µM
TGI [2]: 35.7 µM
TGI [3]: 33.6 µM
TGI [4]: 29.7 µM
TGI [5]: 36.8 µM
TGI [6]: 33 µM
TGI [7]: > 100 µM
TGI [8]: > 100 µM
TGI [10]: 37.6 µM
TGI [11]: 35.1 µM
TGI [12]: 64.9 µM
TGI [13]: 31 µM
TGI [15]: 62 µM
TGI [16]: 17.2 µM
TGI [19]: 38.4 µM
TGI [21]: 38.7 µM
TGI [22]: 31.3 µM
TGI [23]: 36.6 µM
TGI [24]: 30.5 µM
TGI [25]: 29.9 µM
TGI [26]: 25.2 µM
TGI [28]: 30 µM
TGI [29]: 41.5 µM
TGI [30]: 34.9 µM
TGI [31]: 27.8 µM
TGI [32]: 38.2 µM
TGI [33]: 29.3 µM
TGI [34]: 32 µM
TGI [35]: 32.5 µM
TGI [36]: 36.3 µM
TGI [37]: 32.4 µM
TGI [38]: 33 µM
TGI [39]: 32.3 µM
TGI [40]: 33 µM
TGI [41]: 29.2 µM
TGI [42]: 34.7 µM
TGI [43]: 29.9 µM
TGI [44]: 32.9 µM
TGI [45]: > 100 µM
TGI [46]: 43.3 µM
TGI [47]: 30.2 µM
TGI [48]: > 100 µM
TGI [49]: > 100 µM
TGI [50]: 32.6 µM
TGI [51]: 63 µM
TGI [52]: 36 µM
TGI [53]: 41 µM
TGI [54]: 24.1 µM
TGI [55]: 30.8 µM
TGI [56]: 35.7 µM
TGI [57]: 23.7 µM
TGI [58]: 27.6 µM

O=c1nc2sc3ccccc3c(=O)n2[nH]1
TGI [1]: > 100 µM
TGI [3]: > 100 µM
TGI [4]: > 100 µM
TGI [5]: > 100 µM
TGI [6]: > 100 µM
TGI [7]: > 100 µM
TGI [8]: > 100 µM
TGI [10]: > 100 µM
TGI [11]: > 100 µM
TGI [12]: > 100 µM
TGI [13]: > 100 µM
TGI [14]: > 100 µM
TGI [15]: > 100 µM
TGI [16]: > 100 µM
TGI [17]: > 100 µM
TGI [18]: > 100 µM
TGI [19]: > 100 µM
TGI [20]: > 100 µM
TGI [21]: > 100 µM
TGI [22]: > 100 µM
TGI [23]: > 100 µM
TGI [24]: > 100 µM
TGI [25]: > 100 µM
TGI [26]: > 100 µM
TGI [27]: > 100 µM
TGI [28]: > 100 µM
TGI [29]: > 100 µM
TGI [30]: > 100 µM
TGI [31]: > 100 µM
TGI [32]: > 100 µM
TGI [34]: > 100 µM
TGI [35]: > 100 µM
TGI [36]: > 100 µM
TGI [37]: > 100 µM
TGI [59]: > 100 µM
TGI [38]: > 100 µM
TGI [39]: > 100 µM
TGI [40]: > 100 µM
TGI [41]: > 100 µM
TGI [42]: > 100 µM
TGI [43]: > 100 µM
TGI [44]: > 100 µM
TGI [45]: > 100 µM
TGI [46]: > 100 µM
TGI [47]: > 100 µM
TGI [48]: > 100 µM
TGI [49]: > 100 µM
TGI [50]: > 100 µM
TGI [51]: > 100 µM
TGI [52]: > 100 µM
TGI [53]: > 100 µM
TGI [54]: > 100 µM
TGI [55]: > 100 µM
TGI [56]: > 100 µM
TGI [57]: > 100 µM
TGI [58]: > 100 µM
